Measured values reported in US6528685B2 (Teva Pharmaceutical Industries, Ltd., priority 1994, dated 2003).
Where “and” joins values, the source holds several entries; their conditions need not be identical. Equal values may be shown once. Where a name gives a salt, the structure may show the parent alone. Read-outs that look alike come from different tables or passages of the source.

How the values were obtained:
rats [1] = test: Neurotoxicity in rats, positional sense test and gait stance test; conditions: rats p.o.; positional sense test and gait stance test
Description: (§1) Neurotoxicity of the claimed agents was also assessed in mice (i.p. administration) by the rotorod ataxia test and/or in rats (p.o. administration) by positional sense test and gait stance test. […] The term quantitating the neurotoxicity is the medial neurological toxic dose (TD50), was determined in the above tests.

mice [2] = test: Maximal electroshock (MES) model, mice; conditions: mice; for MICE MES ED50: intraperitoneal (i.p.) administration
mice [3] = conditions: mice i.p.
mice [4] = test: Neurotoxicity in mice, rotorod ataxia test; conditions: mice i.p., rotorod ataxia test
Description: as §1

rats [5] = test: Maximal electroshock (MES) model, rats; conditions: rats, oral (p.o.) administration; median effective dose
rats [6] = conditions: rats p.o.
mongolian gerbils = test: Global brain ischemia in gerbils; format: in vivo, mongolian gerbil; conditions: 3 injections, fraction of hippocampi protected from ischemia, 14 days post-ischemia
Description: Male mongolian gerbils, aged 2.5-5 months, housed 4-8 in a cage, were supplied freely with food and water and maintained at 24° C. with a 12 hour day/night cycle. […] Each artery was clamped for 5 minutes with aneurysm clips to produce global brain ischemia. The anesthesia was discontinued upon clamping. After 5 minutes the clamps were removed and the wound closed with skin clips.
For treatment, the test compound or vehicle were injected intra-peritoneally (ip) in a volume of 50 microliters of solvent per 10 g body weight. The first injection was given two minutes after clamp removal, and thereafter daily for the next 2 post-operative days (total of 3 injections).
Seven groups each of 4-8 animals were compared:
V. Ischemia—Test compound treated, one sub-group per concentration tested,
VI. Ischemia and pentobarbital (40 mg/kg) as positive control).
Analysis of neuronal damage was performed 14 days post-ischemia by counting pyramidal neurons throughout the CA1 layer of the anterior hippocampus in […] thick (paraffin) coronal brain sections stained with hematoxylin and erosin.
Percent Protection values represent the fraction of hippocampi protected from ischemia in a group of animals treated with the stated dose of compound.

[7] = tested on: Mechanically dissociated Neonatal Rat Cerebellum; test: Reversal of NMDA induced cell death, neonatal rat cerebellum cultures; format: cell-based; conditions: for SURVIVING CELL IN CULTURE: relative to control (100%); for PERCENT PROTECTION: cell survival minus NMDA effect (30%); for EFFECTIVE PROTECTION: percent protection x 100/70
Description: The cerebellum was aseptically dissociated from 6 or 7-day old rat pups and placed in a 15 ml sterile plastic conical tube containing 3 ml of Dulbecco's modified Eagle's medium (DMEM) with a high glucose concentration ([…]) and 2 mM (v/v) L-glutamine and an antibiotic antimitotic mixture. The cerebella were then dissociated after 20-25 passages through a sterile 13 gauge, 10 cm long stainless steel needle attached to a 5 ml syringe with an inserted 45 micrometer pore nylon sieve. The dissociated cells were centrifuged at 200 g for 5 minutes. The supernatant was discarded and the cells resuspended in medium enriched with 15% (v/v) heat inactivated fetal calf serum. Cell viability was determined by the tryptan blue exclusion test.
Cells were plated at a density of 200/mm^2 on poly-L-lysine coated surfaces. Poly-L-lysine coated glass coverslips were prepared at least one hour in advance of plating by immersing sterile coverslips in sterile distilled water solution containing 15 microgram/ml poly-L-lysine, and washing in sterile water just prior to use. The plated cells were covered with enriched medium and incubated at 37° C. in an atmosphere of 5% CO2 in air and 97% humidity. After three days in culture, the media was replaced with media containing the desired test compound. Each test compound was tested in duplicate. Toxic-dose response was determined for each compound.
Four groups were run in each set of experiments;
I. Control, consisting of enriched media alone,
II. N-methyl-D-aspartate (NMDA, 1 mM for 3 hours) as the cytotoxic challenge,
III. Test compound plus NMDA, and
IV. Positive control, spermine(0.01 micromoles) plus NMDA.
Nerve cell survival was evaluated by phase contrast microscopy and tryptan blue staining after 24 hours.
Surviving cells in culture are measured relative to control (100%) as described above. Percent protection is the Cell Survival for the test compound minus the NMDA effect. Thus, maximal protection is 100% minus 30% NMDA effect i.e. 70%. The Effective Protection was calculated as the percent of the Percent Protection (X) divided by the maximal protection value (e.g. X×100/70).

| SMILES | RATS TD50 (rats [1]) | MICE MES ED50 (mice [2]) | MICE scMet ED50 PI (mice [3]) | MICE TD50 (mice [4]) | RATS MES 50 (rats [5]) | other results |
| --- | --- | --- | --- | --- | --- | --- |
| Cl.NC(=O)CN[C@@H]1CCc2ccccc21 [D, (R)-Indanylglycinamide-HCl salt] | >180 mg/kg | 83 mg/kg | >130 mg/kg |  |  |  |
| NC(=O)CNC1CCc2ccc(F)cc21 (racemic) [Compound 5, (rac)-6-Fluoro-N-(2-acetamido)-1-aminoindan.HCl] |  | <100 mg/kg | >200 mg/kg | >300 mg/kg |  | activity in the MES model in mice, in words (mice [2]): showed activity; MICE MES ED50 (mice [2]; listed as 5*): 58 mg/kg; MICE TD50 (mice [4]; listed as 5*): 138 mg/kg |
| NC(=O)CNC1CCc2ccccc21 (racemic) [Compound 3, (rac)-N-(2-Acetamido)-1-aminoindan.HCl] | >50 mg/kg | <100 mg/kg | 36 mg/kg | >100 mg/kg and 126 mg/kg | <50 mg/kg | MICE MES ED50 (mice [2]; listed as 3*): 83 mg/kg; MICE scMet ED50 PI (mice [3]; listed as 3*): >130 mg/kg; MICE TD50 (mice [4]; listed as 3*): 127 mg/kg |
| CN[C@H]1CCc2ccccc21.Cl [Compound 14, (S)-N-Methyl-1-aminoindan.HCl] | >142 mg/kg | <100 mg/kg |  | 100 mg/kg | 94 mg/kg | RATS scMet ED50 PI (rats [6]): >71 mg/kg |
| NC(=O)CN[C@@H]1CCc2ccccc21 [Compound 1, (R)-N-(2-Acetamido)-1-aminoindan.HCl] | >50 mg/kg | 77 mg/kg | >200 mg/kg | 198 mg/kg | 50 mg/kg |  |
| Cl.N[C@@H]1CCc2ccc(O)cc21 [Compound 35, (R)-6-Hydroxy-1-aminoindan.HCl] |  |  |  |  |  | PERCENT PROTECTION (mongolian gerbils; 0.1 mg/kg ip): 25.0%; PERCENT PROTECTION (mongolian gerbils; 1.0 mg/kg ip): 37.5%; PERCENT PROTECTION (mongolian gerbils; 10.0 mg/kg ip): 37.5%; SURVIVING CELL IN CULTURE ([7]; 0.005 μM + NMDA 1 mM 3 hours): 60%; PERCENT PROTECTION ([7]; 0.005 μM + NMDA): 30%; EFFECTIVE PROTECTION ([7]; 0.005 μM + NMDA): 43%; SURVIVING CELL IN CULTURE ([7]; 0.010 μM + NMDA 1 mM 3 hours): 34%; PERCENT PROTECTION ([7]; 0.010 μM + NMDA): 4%; EFFECTIVE PROTECTION ([7]; 0.010 μM + NMDA): 6%; SURVIVING CELL IN CULTURE ([7]; 0.100 μM + NMDA 1 mM 3 hours): 30%; PERCENT PROTECTION ([7]; 0.100 μM + NMDA): 0%; EFFECTIVE PROTECTION ([7]; 0.100 μM + NMDA): 0% |
